Laboratory results from paper PMC10850047, “Exploring the impact of PEGylation on pharmacokinetics: a size-dependent effect of polyethylene glycol on prostate-specific membrane antigen inhibitors” (EJNMMI Research, 2024).

Legend:
PSMA = molecular target: T1, PSMA (Homo sapiens, UniProt Q04609); conditions: LNCaP cells, competition with [68Ga]Ga-PSMA-11; cited from earlier work
T1 construct: host or cells: LNCaP

LNCaP cells = assay: Uptake and internalization in LNCaP cells; format: cell-based, human; conditions: 120 min incubation, normalized to 10^6 cells
Method: LNCaP prostate cancer cell line obtained from the American Type Culture Collection (ATCC, Manassas, VA) was used for cell affinity studies. […] The supernatant was disposed, and the cell pellet was resuspended in a culture medium, and LNCaP cells (150,000 cells/well) were counted with a hemocytometer and seeded in poly-L-lysine-coated 24-well plates used in cell binding studies. The cells were then allowed to grow at 37 °C for 48 h. PC3-PIP cells provided by Professor Xiaoyuan Chen (Singapore) require additional Puromycin (2 µg/ml) in addition to the appealed culture conditions.

[1] = set-up: method as in PMID 36696174; conditions: at 2 h; cited from earlier work
[2] = tested on: LNCaP tumor-bearing NOD/SCID mice; assay: Biodistribution in LNCaP tumor model; conditions: for Blood uptake / Bone uptake / Brain uptake / Heart uptake / Kidney uptake / Liver uptake / Lung uptake / Muscle uptake / Salivary uptake / Small int (small intestine) uptake / Spleen uptake / Stomach uptake / Tumor uptake: mean ± SD (n=5)

T1 sequence (Q04609 whole entry): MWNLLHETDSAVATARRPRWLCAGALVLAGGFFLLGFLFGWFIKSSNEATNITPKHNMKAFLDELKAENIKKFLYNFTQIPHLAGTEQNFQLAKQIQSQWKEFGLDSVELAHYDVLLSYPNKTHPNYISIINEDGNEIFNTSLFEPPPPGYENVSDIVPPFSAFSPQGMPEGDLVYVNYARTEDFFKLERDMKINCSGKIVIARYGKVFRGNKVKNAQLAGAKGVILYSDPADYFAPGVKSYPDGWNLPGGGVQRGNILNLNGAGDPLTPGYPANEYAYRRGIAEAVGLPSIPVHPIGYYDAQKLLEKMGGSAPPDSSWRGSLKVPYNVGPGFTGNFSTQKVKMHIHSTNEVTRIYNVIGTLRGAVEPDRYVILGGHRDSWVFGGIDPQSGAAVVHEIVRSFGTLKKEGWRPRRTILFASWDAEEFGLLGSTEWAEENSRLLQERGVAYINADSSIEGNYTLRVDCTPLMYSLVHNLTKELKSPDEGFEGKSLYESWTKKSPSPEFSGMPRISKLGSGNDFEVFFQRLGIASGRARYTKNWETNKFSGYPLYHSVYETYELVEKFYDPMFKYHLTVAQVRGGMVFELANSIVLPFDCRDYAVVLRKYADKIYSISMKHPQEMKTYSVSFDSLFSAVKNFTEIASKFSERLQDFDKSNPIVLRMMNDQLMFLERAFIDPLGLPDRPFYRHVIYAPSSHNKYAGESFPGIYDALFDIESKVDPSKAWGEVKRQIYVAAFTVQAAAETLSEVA

In the case of `O=C([O-])CN1CCN(CC(=O)[O-])CCN(CC(=O)NCCCCCN(CCCC[C@H](NC(=O)N[C@@H](CCC(=O)O)C(=O)O)C(=O)O)C(=O)C2c3ccccc3-c3ccccc32)CCN(CC(=O)[O-])CC1.[68Ga+3]` [[^68Ga]Ga-Flu-1], the IC50 (PSMA) is listed as 9.62 ± 1.7 nM, the “Internalization in LNCaP cells” value (LNCaP cells) is listed as 21.3 ± 0.13% and the “Uptake in LNCaP cells” value (LNCaP cells) is listed as 34.57 ± 4.14%. For the same compound, the “Kidney uptake, folds greater than that in the tumor” value [1] was 3 folds, the Tumor/Blood ratio ([2]; 30 min) was 5.94±1.41 and the Tumor/Heart ratio ([2]; 30 min) was 17.48±3.23. It also gave a Tumor/Kidney ratio ([2]; 30 min) of 0.14±0.12, a Tumor/Liver ratio ([2]; 30 min) of 15.57±2.89 and a Tumor/Salivary ratio ([2]; 30 min) of 5.63±1.11. It also gave a Blood uptake ([2]; 30 min p.i.) of 5.53±2.11 %ID/g, a Bone uptake ([2]; 30 min p.i.) of 0.66±0.22 %ID/g and a Brain uptake ([2]; 30 min p.i.) of 0.18±0.10 %ID/g. The Heart uptake ([2]; 30 min p.i.) was 1.88±0.46 %ID/g, the Kidney uptake ([2]; 30 min p.i.) was 240.00 ± 34.68 %ID/g and the Liver uptake ([2]; 30 min p.i.) was 2.11±0.52 %ID/g. For the same compound, the Lung uptake ([2]; 30 min p.i.) was 5.77±2.01 %ID/g, the Muscle uptake ([2]; 30 min p.i.) was 0.93±0.34 %ID/g and the Salivary uptake ([2]; 30 min p.i.) was 5.84±3.65 %ID/g. The “Small int (small intestine) uptake” value ([2]; 30 min p.i.) was 2.52±0.60 %ID/g, the Spleen uptake ([2]; 30 min p.i.) was 9.45±5.92 %ID/g and the Stomach uptake ([2]; 30 min p.i.) was 1.84±0.31 %ID/g. It also gave a Tumor uptake ([2]; 30 min p.i.) of 32.86 ± 12.02 %ID/g, a Tumor/Blood ratio ([2]; 60 min) of 11.1±1.97 and a Tumor/Heart ratio ([2]; 60 min) of 44.13±4.22. The Tumor/Kidney ratio ([2]; 60 min) was 0.22±0.21, the Tumor/Liver ratio ([2]; 60 min) was 33.17±3.09 and the Tumor/Salivary ratio ([2]; 60 min) was 17.24±3.54. It also gave a Blood uptake ([2]; 60 min p.i.) of 4.69±2.33 %ID/g, a Bone uptake ([2]; 60 min p.i.) of 0.29±0.18 %ID/g and a Brain uptake ([2]; 60 min p.i.) of 0.11±0.10 %ID/g. For the same compound, the Heart uptake ([2]; 60 min p.i.) was 1.18±0.36 %ID/g, the Kidney uptake ([2]; 60 min p.i.) was 240.01±31.08 %ID/g and the Liver uptake ([2]; 60 min p.i.) was 1.57±0.60 %ID/g. The Lung uptake ([2]; 60 min p.i.) was 3.27±0.84 %ID/g, the Muscle uptake ([2]; 60 min p.i.) was 0.44±0.25 %ID/g and the Salivary uptake ([2]; 60 min p.i.) was 3.02±1.27 %ID/g. The “Small int (small intestine) uptake” value ([2]; 60 min p.i.) was 1.89±1.10 %ID/g, the Spleen uptake ([2]; 60 min p.i.) was 7.25±3.39 %ID/g and the Stomach uptake ([2]; 60 min p.i.) was 0.86±0.11 %ID/g. It also gave a Tumor uptake ([2]; 60 min p.i.) of 52.07 ± 14.83 %ID/g, a Tumor/Blood ratio ([2]; 120 min) of 13.07±2.56 and a Tumor/Heart ratio ([2]; 120 min) of 69.16±5.69. The Tumor/Kidney ratio ([2]; 120 min) was 0.31±0.21, the Tumor/Liver ratio ([2]; 120 min) was 37.14±3.65 and the Tumor/Salivary ratio ([2]; 120 min) was 27.47±4.33. It also gave a Blood uptake ([2]; 120 min p.i.) of 3.07±2.7 %ID/g, a Bone uptake ([2]; 120 min p.i.) of 0.34±0.21 %ID/g and a Brain uptake ([2]; 120 min p.i.) of 0.06±0.04 %ID/g. For the same compound, the Heart uptake ([2]; 120 min p.i.) was 0.58±0.28 %ID/g, the Kidney uptake ([2]; 120 min p.i.) was 127.83 ± 27.94 %ID/g and the Liver uptake ([2]; 120 min p.i.) was 1.08±0.71 %ID/g. It also gave a Lung uptake ([2]; 120 min p.i.) of 1.23±0.47 %ID/g, a Muscle uptake ([2]; 120 min p.i.) of 0.19±0.08 %ID/g and a Salivary uptake ([2]; 120 min p.i.) of 1.46±1.05 %ID/g. The “Small int (small intestine) uptake” value ([2]; 120 min p.i.) was 0.46±0.25 %ID/g, the Spleen uptake ([2]; 120 min p.i.) was 2.38±1.75 %ID/g and the Stomach uptake ([2]; 120 min p.i.) was 0.42±0.17 %ID/g. The Tumor uptake ([2]; 120 min p.i.) was 40.11 ± 9.24 %ID/g.
